Experimental data: US7033583B2, “Polymeric thiol-linked prodrugs” (Enzon Pharmaceuticals, Inc., priority 2001, dated 2006)
pIC50: −log10 of the molar value.

Experiments:
[1] = test system: P388/0 cell lines; test: Cytotoxicity assay (Alamar Blue) in P388/0 cells; type: cell-based; settings: Mus musculus, 72 h, 3 days
Procedure: Cell Lines and Cytotoxicity Assays. Studies using P388/0 cell lines for IC50 (drug concentration inhibiting growth of cells by 50%) were maintained and conducted as previously reported. Briefly, for IC50 determination, cells were seeded into the microwell plates at a density of 2×10^3 cells per 50 μL per well. Plates were incubated at 37° C. in a humidified incubator with 5% CO2 for 3 days. Cell growth was measured by the addition of 10 μL/well of Alamar Blue (Alamar Biosciences, Inc., Sacramento, Calif.) and the plates were incubated a further 4 h at 37° C. The IC50 values for each compound were determined from absorbance versus dilution factor plots. All cell cultures for animal implantation were maintained at 37° C. in a humidified atmosphere of 5% CO2/95% O2 and subcultured once a week. All cell lines were periodically tested for Mycoplasma and were Mycoplasma free.

[2] = test system: Lung M109 Syngeneic Solid Tumors; test: In vivo efficacy against M109 solid tumors; design: species or system Balb/C mice; settings: i.v. day 1 & 4; for T/C (%) at Day 25: control median tumor ~2000 mm^3
Procedure: M109 cells (NCI), derived from donor mice, were grown and expanded in tissue culture for in vivo implantation. Cells were grown in EMEM with 10% FBS and 1% streptomycin/penicillin media, kept in an incubator at 37° C. with 5% CO2 and split twice a week. Cells were trypsinized, harvested, washed, counted and prepared in PBS for transport to the vivarium. Cells were kept on ice until implantation was conducted with minimum lag time. A cell suspension of approximately 5×10^6 cells/mL was used. Balb/C mice were implanted subcutaneous with 100 μL of the above cell suspension (Day 0). Treatments were administered intravenously on Day 1 and Day 4. Compound doses were based on the content of 6-MP. Body weight and tumor volume were then measured twice weekly until the group's median tumor volume exceeded 2000 mm^3. The tumor volume for each mouse was determined by measuring two dimensions with calipers and calculated using the formula: tumor volume=(length×width^2)/2. Drug effects were determined by comparing tumor growth in treated versus control (no vehicle) mice. Three types of endpoints were used as the basis for comparison: (a) the percent difference in tumor volume (% T/C), measured when the control group's median tumor volume reached approximately 800–1100 mm^3 (exponential growth phase), (b) again when the control group's median tumor volume was approximately 2000 mm^3 and (c) the number of tumor regression (smaller tumor volume on Day 25 compared to Day 1) per group.

SMILES: Sc1ncnc2nc[nH]c12 [Compound 1, 6-mercaptopurine, reference compound]
- pIC50 [1]: 5.57
- inhibiting the growth of M109 solid tumors ([2]; Balb/C mice): ineffective
- T/C (%) at Day 18 ([2]; total dose 60 mg/kg (6-MP content), control median tumor ~1000 mm^3): 127.1%
- T/C (%) at Day 25 ([2]; total dose 60 mg/kg (6-MP content)): 122.0%
- T/C (%) at Day 25 ([2]; total dose 200 mg/kg): 183.8%
